Where “and” joins values, the source holds several entries; their conditions need not be identical. Identical values can stand only once. Like-named read-outs stand apart in the source and are kept apart here.
What was measured:
[1] = test system: MARV (Ci67 strain); test: organism not typed; format: cell-based; conditions: Huh-7, read-out: EC50, MARV replication
[2] = test system: VEEV (TC-83); conditions: mouse, in vivo
[3] = test system: VEEV (TrD); test: microbe, parasite or virus in culture; format: cell-based; conditions: Venezuelan equine encephalitis virus, U-87 MG, read-out: EC50, VEEV (TrD) infection
[4] = test system: VEEV (TrD); format: cell-based
[5] = test system: MAP2K5; conditions: cited from earlier work
[6] = test system: TNF-α, IL-1β, IL-6, MCP-1; format: cell-based, human
[7] = test system: VEEV (TC-83); test: microbe, parasite or virus in culture; format: cell-based; conditions: Venezuelan equine encephalitis virus, U-87 MG, read-out: EC50, VEEV (TC-83) infection
[8] = test system: DENV2; test: microbe, parasite or virus in culture; format: cell-based; conditions: Dengue virus, DENV2, Huh-7, read-out: EC50, DENV2 replication
[9] = test system: MPOXV 2003 and MPOXV 2022; test: microbe, parasite or virus in culture; format: cell-based; conditions: Monkeypox virus, A549, read-out: EC50, monkeypox replication
[10] = mouse, in vivo
[11] = test system: VEEV (TC-83); format: cell-based
[12] = test system: SARS-CoV-2 main protease (Mpro); conditions: cited from earlier work
[13] = test system: AKT, ERK, and p38 MAPK; format: cell-based, human
[14] = in vitro; conditions: African green monkey
[15] = in vitro; conditions: human, Cell viability (%)
[16] = test system: RAF1; conditions: cited from earlier work
[17] = test system: DENV2; format: cell-based
[18] = test system: EBOV (Kikwit isolate); test: microbe, parasite or virus in culture; format: cell-based; conditions: Zaire ebolavirus, Huh-7, read-out: EC50, EBOV replication
[19] = test system: ACE2; format: cell-based, human
[20] = test system: RIPK2; conditions: cited from earlier work
[21] = test system: Calu-3 cells; conditions: human, 1.25 µM
[22] = test system: SARS-CoV-2; format: cell-based
[23] = test system: SARS-CoV-2; format: cell-based; remark: listed apart in the source
[24] = test system: IL-2, IL-12p70, IL-13, IL-6, IFN-γ, IL-10; format: cell-based, human
[25] = test system: claudin-7 tight junctions; format: cell-based, human
[26] = test system: SLK; conditions: cited from earlier work
[27] = test system: ErbB1; conditions: cited from earlier work
[28] = test system: rVSV-SARS-CoV-2-S; test: microbe, parasite or virus in culture; format: cell-based; conditions: Severe acute respiratory syndrome coronavirus 2, Vero, read-out: EC50, rVSV-SARS-CoV-2-S infection
[29] = test system: SARS-CoV-2 (USA-WA1/2020); format: cell-based
[30] = test system: Vero cells; conditions: African green monkey
[31] = test system: rVSV-SARS-CoV-2-S; test: microbe, parasite or virus in culture; format: cell-based
[32] = human, in vivo; cited from earlier work
[33] = test system: Huh7 cells; conditions: human
[34] = biological target: ErbB4 (Homo sapiens, UniProt Q15303); test: biochemical; conditions: read-out: ErbB4 activity (%)
Chain of ErbB4 (Q15303 26-1308): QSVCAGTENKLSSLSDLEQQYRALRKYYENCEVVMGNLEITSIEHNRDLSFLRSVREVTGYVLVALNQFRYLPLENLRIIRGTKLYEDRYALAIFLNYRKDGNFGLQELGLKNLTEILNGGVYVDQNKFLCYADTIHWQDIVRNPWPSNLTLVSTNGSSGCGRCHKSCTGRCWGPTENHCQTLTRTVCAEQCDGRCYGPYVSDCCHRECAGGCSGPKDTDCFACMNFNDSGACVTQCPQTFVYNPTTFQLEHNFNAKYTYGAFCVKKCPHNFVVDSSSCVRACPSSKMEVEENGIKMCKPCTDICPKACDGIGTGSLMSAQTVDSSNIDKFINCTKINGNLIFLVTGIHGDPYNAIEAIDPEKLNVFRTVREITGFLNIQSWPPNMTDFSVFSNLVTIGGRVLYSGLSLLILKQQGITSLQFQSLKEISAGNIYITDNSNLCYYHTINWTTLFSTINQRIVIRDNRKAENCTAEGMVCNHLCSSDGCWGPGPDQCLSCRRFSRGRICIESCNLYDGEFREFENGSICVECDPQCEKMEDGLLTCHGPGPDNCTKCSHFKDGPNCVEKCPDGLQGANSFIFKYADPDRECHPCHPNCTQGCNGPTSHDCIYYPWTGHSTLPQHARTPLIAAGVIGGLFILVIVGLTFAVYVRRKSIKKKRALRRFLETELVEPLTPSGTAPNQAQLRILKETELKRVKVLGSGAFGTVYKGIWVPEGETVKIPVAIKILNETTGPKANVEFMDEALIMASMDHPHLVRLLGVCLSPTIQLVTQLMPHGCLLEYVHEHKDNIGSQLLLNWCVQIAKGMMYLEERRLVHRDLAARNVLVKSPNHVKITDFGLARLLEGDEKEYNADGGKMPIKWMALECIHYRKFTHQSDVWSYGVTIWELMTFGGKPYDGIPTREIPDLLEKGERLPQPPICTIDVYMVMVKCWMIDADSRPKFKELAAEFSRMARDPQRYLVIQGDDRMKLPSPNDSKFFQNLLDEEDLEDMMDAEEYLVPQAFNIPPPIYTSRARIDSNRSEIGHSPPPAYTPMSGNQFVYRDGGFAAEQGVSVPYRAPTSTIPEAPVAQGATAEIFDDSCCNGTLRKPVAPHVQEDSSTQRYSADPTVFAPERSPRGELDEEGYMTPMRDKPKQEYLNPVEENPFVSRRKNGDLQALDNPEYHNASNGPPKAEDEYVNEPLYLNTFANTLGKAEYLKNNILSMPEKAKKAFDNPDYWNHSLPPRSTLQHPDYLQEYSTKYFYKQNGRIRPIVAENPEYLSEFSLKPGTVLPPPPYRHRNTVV

[35] = test system: SARS-CoV-2 (Belgium-GHB-03021); format: cell-based
[36] = test system: SARS-CoV-2 (USA-WA1/2020); test: microbe, parasite or virus in culture; format: cell-based; conditions: Severe acute respiratory syndrome coronavirus 2, Vero
[37] = test system: rVSV-SARS-CoV-2-S; format: cell-based
[38] = test system: brain microvascular endothelial cell monolayer

CS(=O)(=O)CCNCc1ccc(-c2ccc3ncnc(Nc4ccc(OCc5cccc(F)c5)c(Cl)c4)c3c2)o1 [Lapatinib]
EC50 [1]: 2000 nM
mice protected [2]: 60%
mice protected by day 10 [2]: 80%
mice protected by day 14 [2]: 40%
toxicity of the dose in the VEEV model [2]: nontoxic
EC50 [3]: 900 nM
VEEV (TrD) replication in vascular and brain sides of the gNVU [4]: suppressed VEEV (TrD) replication
Other targets: MAP2K5 (% of control) [5]: RAF1 (0%), STK10 (1.4%), RIPK2 (6.1%), MAP2K5 (12%), SLK (18%)
IL-6 concentration in ALOs' supernatants [6]: 6.30 pg/mL and 5.01 pg/mL and 5.83 pg/mL and 5.58 pg/mL and 5.85 pg/mL and 5.34 pg/mL and 4.40 pg/mL and 3.70 pg/mL
MCP-1 concentration in ALOs' supernatants [6]: 39.85 pg/mL and 40.23 pg/mL and 32.64 pg/mL and 29.59 pg/mL and 33.59 pg/mL and 31.32 pg/mL and 47.61 pg/mL and 36.68 pg/mL
concentration achieving cytokine levels at or lower than in uninfected monolayers [6]: 0.5 µM
expression level of MCP-1 [6]: increased
expression level of TNF-α, IL-1β and IL-6 [6]: dose-dependently reduced
EC50 [7]: 1200 nM
EC50 [8]: 2000 nM
EC50 [9]: 6200 to 7600 nM
tolerability [10]: good tolerability
replication of TC-83 [11]: dose-dependently inhibited replication
effect on SARS-CoV-2 main protease (Mpro) [12]: inhibits
SARS-CoV-2-induced activation of AKT and ERK (1.5 and 24 hpi) and p38 MAPK (24 hpi) [13]: dramatically inhibited
CC50 [14]: > 20000 nM
viability at 6.67 µM ([14]; Cell viability (%)): 86.8%
viability at 20 µM ([14]; Cell viability (%)): 64%
viability at 20 µM ([14]; Vero cell viability (%)): 85%
viability at 20 µM [15]: 68.5%
Other targets: RAF1 (% of control) [16]: RAF1 (0%), STK10 (1.4%), RIPK2 (6.1%), MAP2K5 (12%), SLK (18%)
replication of DENV2 [17]: dose-dependently inhibited replication
EC50 [18]: 2500 nM
cell surface level of ACE2 in infected cells [19]: reversed the effect of SARS-CoV-2 infection
Other targets: RIPK2 (% of control) [20]: RAF1 (0%), STK10 (1.4%), RIPK2 (6.1%), MAP2K5 (12%), SLK (18%)
Calu-3 cell viability (%) [21]: 85.68%
mean Manders' coefficient, colocalization of nucleocapsid and Rab7 [22]: 0.33
number of nucleocapsid puncta per cell [22]: significantly reduced
suppression of viral infection [23]: 98% and 75% and 99% and 84% and 57%
IFN-γ concentration [24]: 26.79 pg/mL and 38.39 pg/mL
IL-1β concentration [24]: 11.89 pg/mL and 16.34 pg/mL
IL-2 concentration [24]: 11.13 pg/mL and 12.03 pg/mL
IL-4 concentration [24]: 7.10 pg/mL and 9.18 pg/mL
IL-6 concentration [24]: 1072.19 pg/mL and 1729.84 pg/mL
IL-8 concentration [24]: 2235.87 pg/mL and 2263.16 pg/mL
IL-10 concentration [24]: 8.47 pg/mL and 10.43 pg/mL
IL-12p70 concentration [24]: 18.48 pg/mL and 18.83 pg/mL
IL-13 concentration [24]: 9.88 pg/mL and 8.83 pg/mL
TNF-α concentration [24]: 22.84 pg/mL and 21.83 pg/mL
production of IL-2, IL-12p70, IL-13 and IL-6 [24]: reduced the production
claudin-7 morphology and alveolar-like architecture [25]: intact claudin-7 morphology
Other targets: SLK (% of control) [26]: RAF1 (0%), STK10 (1.4%), RIPK2 (6.1%), MAP2K5 (12%), SLK (18%)
% of control, ErbB1 [27]: 5.3 nM 0%
EC50 [28]: 3200 nM
SARS-CoV-2 nucleocapsid staining (confocal IF) [29]: near-complete disappearance
CC50 [30]: > 20000 nM
EC50 ([31]; Severe acute respiratory syndrome coronavirus 2, Calu-3, read-out: EC50, rVSV-SARS-CoV-2-S infection): 2600 to 3200 nM
EC50 ([31]; read-out: EC50, rVSV-SARS-CoV-2-S infection): 2600 nM
estimated incidence of pneumonitis, interstitial lung disease or lung fibrosis [32]: 0.2%
Huh7 cell viability (%) ([33]; 1.111 µM): 102.98%
Huh7 cell viability (%) ([33]; 10 µM): 86.28%
activity at 0.001 µM [34]: 104%
activity at 0.003 µM [34]: 93.7%
activity at 0.009 µM [34]: 68.4%
activity at 0.247 µM [34]: 17.5%
activity at 2.222 µM [34]: 6.13%
activity at 6.667 µM [34]: 3.13%
activity at 20 µM [34]: 2.93%
activity at […] [34]: 31.2% and 54.5% and 8.67%
rescue of Vero-eGFP cells from SARS-CoV-2-induced lethality, dose response [35]: dose-dependent rescue
EC50 ([36]; 24 h, read-out: SARS-CoV-2 EC50): 500 nM
EC50 ([36]; read-out: EC50, SARS-CoV-2 infection): 500 nM
effect on rVSV-SARS-CoV-2-S infection when added upon or after virus binding [37]: comparable effects
barrier integrity (FITC-dextran permeability) [38]: maintained barrier integrity

Source: paper PMC10541190 (The Journal of Clinical Investigation, 2023)
